The record followed here is patent publication US8088796B2, “Triamine derivative” (Daiichi Sankyo Company, Limited, priority 2005, dated 2012).

Counter-ions that a name gives are not always drawn.

The term AUC denotes concentration integrated over time. Read a high AUC as more exposure.

For one data set, the system named is Human blood plasma. Kind of data set: Determination of prothrombin time (PT). Format: biochemical. Conditions: concentration at which PT is doubled, Thromboplastin C Plus, linear regression. The procedure: Determination of Prothrombin Time (PT)
Human blood plasma (50 μl) was added to 50 μl of each test compound dissolved in 4% DMSO/physiological saline, and the mixture was pre-incubated at 37° C. for 1 minute. Subsequently, 100 μl of 0.5 U/ml Thromboplastin C Plus (Dade Behring) was added to initiate the reaction. The coagulation time was measured using Amelung KC-10A micro coagulometer (MC Medical). As a control, 4% DMSO/physiological saline was used in place of the test compound. The concentration at which PT is doubled (PTCT2) was calculated by linear regression.

A short description of data set [1]: Test for oral administration (plasma concentration). Format: in vivo. Conditions: 1 mg/kg, monkey, fasted, 1 mg/2 mL/kg as free form in 0.5% methyl cellulose, plasma 0.5-24 h, HPLC/MS/MS. Here is the method:
Test for Oral Administration
To a monkey which had been fasted for over 15 hours, each test compound was orally administered in a free form at a dose of 1 mg/2 mL/kg. The test compound was dissolved or suspended in a 0.5% methyl cellulose solution. Before and 0.5, 1, 2, 4, 8 and 24 hours after the administration, the blood was collected at a ratio of 9 volumes to 1 volume of […] (total 1 ml). The blood was centrifuged (3000 rpm, 10 minutes, 4° C.), and the plasma was collected by separation. The separated plasma was pre-treated, and was subjected to measurement with HPLC/MS/MS, to calculate the plasma concentration from the areas under peak of the internal standard material and the test compound given by SRM chromatography using a calibration curve.

The target of a further data set is T1, human FXa (Homo sapiens, UniProt P00742).
T1 construct: purchased Enzyme Research Laboratories, Inc
T1 sequence (P00742 235-488 limits assumed): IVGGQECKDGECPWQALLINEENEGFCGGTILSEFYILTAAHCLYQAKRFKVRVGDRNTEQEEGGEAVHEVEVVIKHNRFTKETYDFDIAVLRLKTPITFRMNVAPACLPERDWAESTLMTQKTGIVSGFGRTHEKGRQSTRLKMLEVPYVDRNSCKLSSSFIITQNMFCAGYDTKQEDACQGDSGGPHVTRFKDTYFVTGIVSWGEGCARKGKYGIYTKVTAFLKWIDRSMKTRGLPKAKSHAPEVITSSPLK
T1 sequence (P00742 41-179 partner limits assumed): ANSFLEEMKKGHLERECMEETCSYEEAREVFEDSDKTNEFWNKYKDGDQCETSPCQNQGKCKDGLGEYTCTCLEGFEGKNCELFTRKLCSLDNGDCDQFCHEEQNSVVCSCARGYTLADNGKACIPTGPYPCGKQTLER
Put plainly: Determination of human FXa inhibitory effect (IC50 value). As to conditions: substrate S-2222, absorbance at 405 nm, room temperature, read-out: FXaIC50. Format: biochemical. The procedure:
Determination of Human FXa Inhibitory Effect (IC50 Value)
To each well of a 96-well microplate, 10 μl of 5% DMSO solutions of each test compound, the concentrations of which were appropriately prepared stepwise, 40 μl of Tris buffer (100 mM Tris, 200 mM potassium chloride, 0.2% BSA, pH 7.4) and 10 μl of 0.0625 U/ml human FXa (Enzyme Research Laboratories, Inc. dissolved and diluted with Tris buffer) were added, and 40 μl of a 750 μM aqueous solution of S-2222 (Chromogenix Co.) was added. Absorbance at 405 nm was measured for 10 minutes at room temperature to determine an increase in absorbance (ΔOD/min). As a control, Tris buffer was used in place of the test compound.
The rate of inhibition (%) at the final concentration of the test compound calculated using the following equation and the final concentration of the test compound were plotted as ordinate and as abscissa, respectively on a logarithmic normal probability paper, to determine the 50% inhibition dose (IC^50 value). Rate of inhibition (%)=(1−(ΔOD/min) of test compound[…](ΔOD/min) of control)×100

With `O=CN1CC[C@H](NC(=O)C(=O)Nc2ccc(Cl)cn2)[C@H](NC(=O)c2nc3c(s2)COCC3)C1` [Example 38, N^1-(5-chloropyridin-2-yl)-N^2-((3R,4S)-3-{[(6,7-dihydro-4H-pyrano[4,3-d]thiazol-2-yl)carbonyl]amino}-1-formylpiperidin-4-yl)ethanediamide], the PTCT2 with Human blood plasma worked out at 0.50 µM. Moreover, the AUC in data set [1] stood at 880 ng·h/mL. Moreover, on human FXa, the IC50 was determined as 3 nM.
For `CN1CCc2nc(C(=O)N[C@@H]3CN(C=O)CC[C@@H]3NC(=O)C(=O)Nc3ccc(Cl)cn3)sc2C1` [Example 8, N^1-(5-chloropyridin-2-yl)-N^2-((3R,4S)-1-formyl-3-{[(5-methyl-4,5,6,7-tetrahydrothiazolo[5,4-c]pyridin-2-yl)carbonyl]amino}piperidin-4-yl)ethanediamide hydrochloride], the PTCT2 in the data set with Human blood plasma was 0.26 µM. Also, the area under the curve (AUC) in data set [1] is 826 ng·h/mL. Also, the IC50 on human FXa was found to be 2.2 nM.
Turning to `CN1CCc2nc(C(=O)N[C@@H]3CN(C=O)CC[C@@H]3NC(=O)C(=O)Nc3ccc(Cl)s3)sc2C1` [Example 23, N^1-(5-chlorothiophen-2-yl)-N^2-((3R,4S)-1-formyl-3-{[(5-methyl-4,5,6,7-tetrahydrothiazolo[5,4-c]pyridin-2-yl)carbonyl]amino}piperidin-4-yl)ethanediamide hydrochloride], in the data set on Human blood plasma, the PTCT2 amounted to 0.14 µM. In data set [1], this molecule yielded an AUC of 899 ng·h/mL. Further, the IC50 at human FXa was 0.9 nM.
The matching figures for `COCC(=O)N1CC[C@H](NC(=O)C(=O)Nc2ccc(Cl)cn2)[C@H](NC(=O)c2nc3c(s2)CN(C)CC3)C1.Cl` [Compound A, N^1-(5-chloropyridin-2-yl)-N^2-((3R,4S)-1-(2-methoxyacetyl)-3-{[(5-methyl-4,5,6,7-tetrahydrothiazolo[5,4-c]pyridin-2-yl)carbonyl]amino}piperidin-4-yl)ethanediamide hydrochloride, reference compound]: 0.37 µM, 157 ng·h/mL and 2.3 nM.
The matching figures for `CC(=O)N1CC[C@H](NC(=O)C(=O)Nc2ccc(Cl)cn2)[C@H](NC(=O)c2nc3c(s2)CN(C)CC3)C1` [Example 9, N^1-((3R,4S)-1-acetyl-3-{[(5-methyl-4,5,6,7-tetrahydrothiazolo[5,4-c]pyridin-2-yl)carbonyl]amino}piperidin-4-yl)-N^2-(5-chloropyridin-2-yl)ethanediamide hydrochloride]: 0.25 µM, 482 ng·h/mL and 1.6 nM.
